Test results from paper PMC8043124 (ACS Infectious Diseases, 2021).

Legend:
[1] = test system: P. aeruginosa (strain PA14); assay: Checkerboard assay of potentiator-antibiotic pairs; format: cell-based, Pseudomonas aeruginosa; details: for Antibiotic MIC with WD40 relative to clinical breakpoint: PA14, with WD40, breakpoints for Gram-positive species (EUCAST)
[2] = test system: P. aeruginosa clinical isolates (BWH006, BWH012, BWH013, BWH021, BWH027); assay: Checkerboard assay of potentiator-antibiotic pairs in clinical isolates; format: cell-based, Pseudomonas aeruginosa; details: for Antibiotic MIC with WD40 relative to clinical breakpoint: 10 μM WD40, MIC95, breakpoints for Gram-positive species (EUCAST); for MIC of antibiotic alone: range over isolates, Figure 6 names MIC95

SMILES	Antibiotic MIC with WD40 relative to clinical breakpoint [1]	Antibiotic MIC with WD40 relative to clinical breakpoint [2]	MIC of antibiotic alone [2] [µg/mL]	MIC of antibiotic alone ([1]; PA14) [µg/mL]
CC(=O)O[C@H]1C[C@@]2(C)[C@@H](C[C@@H](O)[C@H]3[C@@]4(C)CC[C@@H](O)[C@@H](C)[C@@H]4CC[C@@]32C)/C1=C(\CCC=C(C)C)C(=O)O [fusidic acid]	clinical breakpoints were met	did not meet their clinical breakpoints	512 to 1024	–
CO[C@H]1/C=C/O[C@@]2(C)Oc3c(C)c(O)c4c(O)c(c(/C=N/N5CCN(C)CC5)c(O)c4c3C2=O)NC(=O)/C(C)=C\C=C\[C@H](C)[C@H](O)[C@@H](C)[C@@H](O)[C@@H](C)[C@H](OC(C)=O)[C@@H]1C [rifampin]	to the clinical breakpoint	below its clinical breakpoint	8 to 16	512
